These are literature values, as cited in patent publication US4127519A, “Octadecapeptides, intermediates therefor, and compositions and methods employing said octadecapeptides” (priority 1977, dated 1978).

The conditions of data set [1]: injected directly into the brain of the rat.
The subject of data set [2] is brain opiate receptor sites.

With “H-Tyr-Gly-Gly-Phe-Met-OH [methionine enkephalin]”, the analgesic activity result in data set [1] is reported as “weak analgesic agent of short duration”. In data set [2], the “binding to partially purified brain opiate receptor sites” value is given as “binds stereo-specifically”.
